Assay results reported in patent US20240360151A1 (SANOFI, priority 2023, published 2024).
Where a name gives a salt, the structure may show the parent alone.

Legend:
[1] = target: T1, NLRP3 inflammasome (Homo sapiens, UniProt Q96P20); experiment: IL-1β secretion assay (NLRP3 IC50) in LPS-primed, nigericin-activated THP-1 cells, HTRF; type: cell-based; conditions: monocytic THP-1 cells; LPS 10 ng/mL 3 h priming, then compound + nigericin 10 μM 2 h; relative IC50, 10 concentrations, geometric mean
T1 construct: endogenous in cells; host or cells: THP-1 monocytic cells
T1 sequence (Q96P20 whole entry): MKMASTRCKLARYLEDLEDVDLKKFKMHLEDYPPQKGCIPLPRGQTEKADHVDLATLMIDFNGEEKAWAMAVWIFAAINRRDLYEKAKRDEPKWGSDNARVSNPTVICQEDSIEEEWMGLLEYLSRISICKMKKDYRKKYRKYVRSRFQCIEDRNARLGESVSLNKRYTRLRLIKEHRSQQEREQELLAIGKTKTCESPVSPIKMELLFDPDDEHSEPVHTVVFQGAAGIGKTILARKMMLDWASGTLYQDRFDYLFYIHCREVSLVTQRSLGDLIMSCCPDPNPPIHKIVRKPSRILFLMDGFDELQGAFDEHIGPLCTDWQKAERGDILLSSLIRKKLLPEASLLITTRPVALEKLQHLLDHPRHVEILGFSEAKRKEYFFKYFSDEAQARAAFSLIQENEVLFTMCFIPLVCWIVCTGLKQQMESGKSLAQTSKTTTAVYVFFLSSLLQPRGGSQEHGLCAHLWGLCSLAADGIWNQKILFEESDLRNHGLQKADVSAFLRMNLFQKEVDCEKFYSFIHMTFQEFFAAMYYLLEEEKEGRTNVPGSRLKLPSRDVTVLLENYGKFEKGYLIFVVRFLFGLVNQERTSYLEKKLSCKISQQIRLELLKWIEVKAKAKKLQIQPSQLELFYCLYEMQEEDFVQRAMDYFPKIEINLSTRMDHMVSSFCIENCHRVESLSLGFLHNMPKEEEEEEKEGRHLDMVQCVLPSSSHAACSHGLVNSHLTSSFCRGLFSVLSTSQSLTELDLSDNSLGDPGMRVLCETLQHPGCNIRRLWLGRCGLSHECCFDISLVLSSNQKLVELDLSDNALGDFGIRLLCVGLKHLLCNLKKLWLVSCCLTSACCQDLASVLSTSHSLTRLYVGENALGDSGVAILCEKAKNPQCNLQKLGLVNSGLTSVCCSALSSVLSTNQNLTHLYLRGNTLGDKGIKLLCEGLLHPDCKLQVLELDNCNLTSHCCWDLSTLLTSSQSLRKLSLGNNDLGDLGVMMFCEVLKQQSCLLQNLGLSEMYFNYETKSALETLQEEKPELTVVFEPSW
Procedure, shortened: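 THP-1 cells primed with LPS 10 ng/mL for 3 h at 37° C., then compound (10-point 1:3 dilution, 0.1% DMSO) added with 10 μM nigericin for 2 h. Supernatant IL-1β measured by HTRF; relative IC50 from a 4-parameter logistic fit, reported as geometric mean.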

[2] = system: NF-kB pathway (TNF-α secretion by THP-1 cells); experiment: TNF-α secretion assay in LPS-stimulated THP-1 cells, Lumit immunoassay; type: cell-based, human; conditions: Homo sapiens, THP-1, 3 h, monocytic THP-1 cells, LPS 10 ng/mL, relative IC50, 10 concentrations, geometric mean
Protocol: Monocytic THP-1 cells were maintained in RPMI 1640 media (Gibco 21875)+10% FBS, (Gibco 10500)+1% penicillin/streptomycin (Gibco 15140-122). Cells were then plated at 40,000 cells per well in 384-well cell culture plates (Corning 3542) and maintained with RPMI1640 (Gibco 11835)+5% FBS, (Gibco 10500). Experimental compounds were prepared and added as described above. TNF-α secretion was triggered by the addition of 10 ng/mL LPS (invivoGen, tlrl-3pelps) and cells were incubated for 3 hours. TNF-α levels were monitored directly in the cells plate using an Lumit assay (Lumit TNFa-Human Immunoassay—Promega W6051) according to manufacturers' instructions.
Data were expressed as percentage of inhibition (I %) as compared to a maximum signal control containing no small molecule (I %=0%) according to the formula: 1%=(1−((Sample−Min))/((Max−Min)))×100, where: • Sample: Signal obtained in the presence of each compound tested, • Max: Maximum signal in the absence of compound added, • Min: Minimum or background signal obtained in the absence of activation signal.
Relative IC50 (IC50 rel) were obtained from a dose response curve with 10 concentrations. Final IC50 rels are expressed as the geometric mean.
Relative IC50 values were estimated with Biost@t-SPEED v2.4 internal software based on SAS system using the 4-parameter logistic model according to Ratkovsky and Reedy (D. A. Ratkovsky, T. J. Reedy, Choosing near-linear parameters in the four parameters logistic model radioligands and related assays. Biometrics, 42 (1986), 575-582): Y=A+C/((1+exp(−B*(log(X)−M)))), where: • A: Lower asymptote (BOTTOM), • A+C: Upper asymptote (TOP), • M: the logarithm of the concentration estimated at the inflexion point (the logarithm of the relative IC50), • B: Slope at the inflexion point of the curve.

| SMILES | IC50 [1] | IC50 [2] |
| --- | --- | --- |
| Cc1cc(Cl)cc(O)c1-c1ccc(N2CCO[C@H]3CCN(C)C[C@H]32)nn1 (racemic) [Example 224, 5-chloro-3-methyl-2-[6-[rac-(4aR,8aS)-6-methyl-3,4a,5,7,8,8a-hexahydro-2H-pyrido[4,3-b][1,4]oxazin-4-yl]pyridazin-3-yl]phenol] | 1 nM | > 10000 nM |
| Cc1cc(C)c(-c2ccc(N3CCO[C@H]4CCN(C)C[C@H]43)nn2)c(O)c1 (racemic) [Example 225, 2-[6-[rac-(4aR,8aS)-6-methyl-3,4a,5,7,8,8a-hexahydro-2H-pyrido[4,3-b][1,4]oxazin-4-yl]pyridazin-3-yl]-3,5-dimethyl-phenol] | 3 nM | > 10000 nM |
| Cc1cc(C(F)(F)F)cc(O)c1-c1ccc(N2CCO[C@H]3CCN(C)C[C@H]32)nn1 (racemic) [Example 226, 2-[6-[rac-(4aR,8aS)-6-methyl-3,4a,5,7,8,8a-hexahydro-2H-pyrido[4,3-b][1,4]oxazin-4-yl]pyridazin-3-yl]-3-methyl-5-(trifluoromethyl)phenol] | 2 nM | > 10000 nM |
| CC(=O)N1C[C@@H]2CCN(c3ccc(-c4c(C)cc(C(F)(F)F)cc4O)nn3)[C@@H]2C1 (racemic) [Example 228, 1-[rac-(3aS,6aS)-1-[6-[2-hydroxy-6-methyl-4-(trifluoromethyl)phenyl]pyridazin-3-yl]-2,3,3a,4,6,6a-hexahydropyrrolo[3,4-b]pyrrol-5-yl]ethanone] | 271 nM | > 10000 nM |
| Cc1cc(C(F)(F)F)cc(O)c1-c1ccc(N2CC[C@H]3CNC[C@H]32)nn1 (racemic) [Example 229, 2-[6-[rac-(3aS,6aS)-3,3a,4,5,6,6a-hexahydro-2H-pyrrolo[3,4-b]pyrrol-1-yl]pyridazin-3-yl]-3-methyl-5-(trifluoromethyl)phenol] | 42 nM | > 10000 nM |
| CCN1C[C@@H]2CCN(c3ccc(-c4c(C)cc(C(F)(F)F)cc4O)nn3)[C@@H]2C1 (racemic) [Example 243, 2-[6-[rac-(3aS,6aS)-5-ethyl-2,3,3a,4,6,6a-hexahydropyrrolo[3,4-b]pyrrol-1-yl]pyridazin-3-yl]-3-methyl-5-(trifluoromethyl)phenol] | 21 nM | > 10000 nM |
| Cc1cc(C(F)(F)F)cc(O)c1-c1ccc(N2CC[C@H]3CNC[C@H]3C2=O)nn1 (racemic) [Example 264, rac-(3aS,7aR)-5-[6-[2-hydroxy-6-methyl-4-(trifluoromethyl)phenyl]pyridazin-3-yl]-2,3,3a,6,7,7a-hexahydro-1H-pyrrolo[3,4-c]pyridin-4-one, hydrochloride] | 69 nM | > 10000 nM |
| Cc1cc(C(F)(F)F)cc(O)c1-c1ccc(N2CC[C@H]3CN(C)C[C@H]32)nn1 (racemic) [Example 265, 2-[6-[rac-(3aS,6aS)-5-methyl-2,3,3a,4,6,6a-hexahydropyrrolo[3,4-b]pyrrol-1-yl]pyridazin-3-yl]-3-methyl-5-(trifluoromethyl)phenol] | 314 nM | > 10000 nM |
| Cc1cc(C(F)(F)F)cc(O)c1-c1ccc(N2CC[C@H]3CNC[C@@H]3C2=O)nn1 (racemic) [Example 269, rac-(3aS,7aS)-5-[6-[2-hydroxy-6-methyl-4-(trifluoromethyl)phenyl]pyridazin-3-yl]-2,3,3a,6,7,7a-hexahydro-1H-pyrrolo[3,4-c]pyridin-4-one, hydrochloride] | 404 nM | > 10000 nM |
| Cc1cc(N2CC[C@@H]3CCN(C)C[C@@H]32)nnc1-c1ccc(C(F)(F)F)cc1O (racemic) [Example 340, 2-[4-methyl-6-[rac-(3aS,7aR)-6-methyl-3,3a,4,5,7,7a-hexahydro-2H-pyrrolo[2,3-c]pyridin-1-yl]pyridazin-3-yl]-5-(trifluoromethyl)phenol] | 0.4 nM | > 10000 nM |
| Cc1ccc(-c2nnc(N3CC[C@@H]4CCN(C)C[C@@H]43)cc2C)c(O)c1 (racemic) [Example 341, 5-methyl-2-[4-methyl-6-[rac-(3aS,7aR)-6-methyl-3,3a,4,5,7,7a-hexahydro-2H-pyrrolo[2,3-c]pyridin-1-yl]pyridazin-3-yl]phenol] | 1 nM | > 10000 nM |
| Cc1cc(C)c(-c2ccc(N3CC[C@@H]4CCN(C)C[C@@H]43)nn2)c(O)c1 (racemic) [Example 342, 3,5-dimethyl-2-[6-[rac-(3aS,7aR)-6-methyl-3,3a,4,5,7,7a-hexahydro-2H-pyrrolo[2,3-c]pyridin-1-yl]pyridazin-3-yl]phenol] | 2 nM | > 10000 nM |
| CCN1C[C@@H]2OCCN(c3ccc(-c4c(C)cc(C(F)(F)F)cc4O)nn3)[C@@H]2C1 (racemic) [Example 361, 3-methyl-2-[6-[rac-(4aR,7aS)-6-ethyl-2,3,4a,5,7,7a-hexahydropyrrolo[3,4-b][1,4]oxazin-4-yl]pyridazin-3-yl]-5-(trifluoromethyl)phenol] | 8 nM | > 10000 nM |
| Cc1cc(C(F)(F)F)cc(O)c1-c1ccc(N2CC[C@@H]3CCN(C)C[C@@H]32)nn1 (racemic) [Example 371, 2-[6-[rac-(3aS,7aR)-6-methyl-3,3a,4,5,7,7a-hexahydro-2H-pyrrolo[2,3-c]pyridin-1-yl]pyridazin-3-yl]-3-methyl-5-(trifluoromethyl)phenol] | 1 nM | > 10000 nM |
| CCN1CC[C@H]2CCN(c3ccc(-c4c(C)cc(C(F)(F)F)cc4O)nn3)[C@H]2C1 (racemic) [Example 378, 2-[6-[rac-(3aS,7aR)-6-ethyl-3,3a,4,5,7,7a-hexahydro-2H-pyrrolo[2,3-c]pyridin-1-yl]pyridazin-3-yl]-3-methyl-5-(trifluoromethyl)phenol] | 1 nM | > 10000 nM |
| Cc1cccc(O)c1-c1ccc(N2CC[C@@H]3CCN(C)C[C@@H]32)nn1 (racemic) [Example 385, 3-methyl-2-[6-[rac-(3aS,7aR)-6-methyl-3,3a,4,5,7,7a-hexahydro-2H-pyrrolo[2,3-c]pyridin-1-yl]pyridazin-3-yl]phenol] | 2 nM | > 10000 nM |
| CCc1cccc(O)c1-c1ccc(N2CC[C@@H]3CCN(C)C[C@@H]32)nn1 (racemic) [Example 388, 3-ethyl-2-[6-[rac-(3aS,7aR)-6-methyl-3,3a,4,5,7,7a-hexahydro-2H-pyrrolo[2,3-c]pyridin-1-yl]pyridazin-3-yl]phenol] | 1 nM | > 10000 nM |
| CN1CC[C@H]2CCN(c3ccc(-c4c(O)cccc4C(F)(F)F)nn3)[C@H]2C1 (racemic) [Example 389, 2-[6-[rac-(3aS,7aR)-6-methyl-3,3a,4,5,7,7a-hexahydro-2H-pyrrolo[2,3-c]pyridin-1-yl]pyridazin-3-yl]-3-(trifluoromethyl)phenol] | 2 nM | > 10000 nM |
| Cc1cc(C)c(-c2ccc(N3CCO[C@H]4CCN(C5CCC5)C[C@H]43)nn2)c(O)c1 (single isomer, unassigned) [Example 10] | 178 nM | > 10000 nM |
| Cc1cc(C)c(-c2ccc(N3CCO[C@@H]4CCN(C5CCC5)C[C@@H]43)nn2)c(O)c1 (single isomer, unassigned) [Example 11] | 3 nM | > 10000 nM |
| Cc1cc(C(F)(F)F)cc(O)c1-c1ccc(N2CCO[C@H]3CCN(C4CCC4)C[C@H]32)nn1 (single isomer, unassigned) [Example 12] | 171 nM | > 10000 nM |
| Cc1cc(C(F)(F)F)cc(O)c1-c1ccc(N2CCO[C@@H]3CCN(C4CCC4)C[C@@H]32)nn1 (single isomer, unassigned) [Example 13] | 2 nM | > 10000 nM |
| Cc1cc(C(F)(F)F)cc(O)c1-c1ccc(N2CCOC(C(C)(C)O)C2)nn1 (single isomer, unassigned) [Example 53, 2-[6-[2-(1-hydroxy-1-methyl-ethyl)morpholin-4-yl]pyridazin-3-yl]-3-methyl-5-(trifluoromethyl)phenol] | 275 nM | > 10000 nM |
| Cc1cc(C(F)(F)F)cc(O)c1-c1ccc(N2CCO[C@H](CN(C)C)C2)nn1 (single isomer, unassigned) [Example 59, 2-[6-[-2-[(dimethylamino)methyl]morpholin-4-yl]pyridazin-3-yl]-3-methyl-5-(trifluoromethyl)phenol] | 203 nM | > 10000 nM |
